Experimental findings from patent US20230159510A1, “NOVEL PRMT5 INHIBITORS” (AMGEN INC., priority 2020, published 2023) are described below.

One test relates to HCT116 MTAP null cells. Nature of the test: HCT116 proliferation assay, MTAP null cells (CellTiter-Glo, 6 days). In kind it is cell-based. The following applies: 144 h, read-out: Protif_ HCT116-MTAP null IC50. The procedure: (§1) HCT116 MTAP null and WT cells were seeded in 96-well tissue culture plates in RPMI 1640 media + 10% fetal bovine serum. Plates were incubated overnight at 37° C. and 5% CO2. Cells were then treated with a 8- or 9-point serial dilution of compound, using a top concentration of 1 or 10 µM, 1:3 serial dilution steps and, a DMSO-only control. Cells were incubated in the presence of drug for 6 days. Effects on cell viability were measured with the CellTiter-Glo® Luminescent Cell Viability Assay (Promega) per manufacturer’s recommendation. Assay plates were read on an EnVision™ Multilabel Reader using the Ultra-Sensitive luminescence module.

In the next test the test system is HCT116 WT cells. Nature of the test: HCT116 proliferation assay, WT cells (CellTiter-Glo, 6 days). Particulars: Homo sapiens, HCT-116, 144 h, read-out: Prolif_HCT116-WT IC50. In kind it is cell-based. The method, then: as §1

Read-outs that look alike come from different tables or passages of the source. Some results are limits rather than exact numbers.

For `Cc1cc2cc(C(=O)N(Cc3ccc(OC(F)(F)F)nn3)C(C)c3ncccn3)ccc2nc1N` (centres unmarked) [Example 791, 2-amino-3-methyl-N-(1-(pyrimidin-2-yl)ethyl)-N-((6-(trifluoromethoxy)pyridazin-3-yl)methyl)quinoline-6-carboxamide], the half-maximal inhibitory concentration (IC50) is 60 nM in the test on HCT116 MTAP null cells (HCT116-MTAP null) and 1720 nM with HCT116 WT cells.

As for `C[C@H](c1ncccn1)N(Cc1ccc(C2CC2)nn1)C(=O)c1ccc2nc(N)c(I)cc2c1` [Example 763, (R)-2-amino-N-((6-cyclopropylpyridazin-3-yl)methyl)-3-iodo-N-(1-(pyrimidin-2-yl)ethyl)quinoline-6-carboxamide], the IC50 with HCT116 MTAP null cells (HCT116-MTAP null) turned out to be 57 nM; with HCT116 WT cells it was 4340 nM.

For the compound `CC(c1ncccc1F)N(Cc1ccc(N2CCOCC2)nn1)C(=O)c1cnc2nc(N)c(Br)cc2c1` (stereo in doubt) [Example 730, 7-amino-6-bromo-N-((1R)-1-(3-fluoro-2-pyridinyl)ethyl)-N-((6-(4-morpholinyl)-3-pyridazinyl)methyl)-1,8-naphthyridine-3-carboxamide], the half-inhibitory concentration (IC50) came to 507 nM in the test with HCT116 MTAP null cells (HCT116-MTAP null) and 8460 nM in the test on HCT116 WT cells.

Take `COC[C@@H](C)N(Cc1ccc(OC)nn1)C(=O)c1ccc2nc(N)c(C)cc2c1` [Example 789, 2-amino-N-((2R)-1-methoxy-2-propanyl)-N-((6-methoxy-3-pyridazinyl)methyl)-3-methyl-6-quinolinecarboxamide]: the IC50 in the test with HCT116 MTAP null cells (HCT116-MTAP null) came to 162 nM; in the test with HCT116 WT cells, 6150 nM.

As for `Cc1cc2cc(C(=O)N(Cc3ccc(C#N)nc3C)[C@H](C)c3ncccn3)ccc2nc1N` (single isomer, unassigned) [Example 820], the results for the IC50 with HCT116 MTAP null cells (HCT116-MTAP null) and in the test with HCT116 WT cells were 239 nM and 3550 nM, respectively.

For `C[C@H](c1ncccn1)N(Cc1ccc(Br)nn1)C(=O)c1ccc2nc(N)c(Br)cc2c1` [Example 740, (R)-2-amino-3-bromo-N-((6-bromopyridazin-3-yl)methyl)-N-(1-(pyrimidin-2-yl)ethyl)quinoline-6-carboxamide], the IC50 was 80 nM in the test with HCT116 MTAP null cells (HCT116-MTAP null) and 4400 nM in the test with HCT116 WT cells.

Regarding `Nc1nc2ccc(C(=O)N(Cc3ccc(Br)nn3)[C@@H]3CCCn4ncnc43)cc2cc1Br` [Example 758, (R)-2-amino-3-bromo-N-((6-bromopyridazin-3-yl)methyl)-N-(5,6,7,8-tetrahydro-[1,2,4]triazolo[1,5-a]pyridin-8-yl)quinoline-6-carboxamide], the IC50 was 337 nM in the test with HCT116 MTAP null cells (HCT116-MTAP null) and greater than 10000 nM in the test with HCT116 WT cells.

Regarding `COc1ccc(CN(C(=O)c2ccc3nc(N)c(Br)cc3c2)C(C)c2ncn(C)n2)nn1` (stereo in doubt) [Example 755, (R)-2-amino-3-bromo-N-((6-methoxypyridazin-3-yl)methyl)-N-(1-(1-methyl-1H-1,2,4-triazol-3-yl)ethyl)quinoline-6-carboxamide], the half-inhibitory concentration (IC50) in the test with HCT116 MTAP null cells (HCT116-MTAP null) was 184 nM; in the test on HCT116 WT cells it was greater than 10000 nM.

In the case of `CO[C@@H]1Cc2ccccc2[C@H]1N(Cc1ccc(C(F)(F)F)cn1)C(=O)c1ccc2nc(N)c(C)cc2c1` [Example 751, 2-amino-N-((1R,2R)-2-methoxy-2,3-dihydro-1H-inden-1-yl)-3-methyl-N-((5-(trifluoromethyl)-2-pyridinyl)methyl)-6-quinolinecarboxamide], the values for the IC50 in the test with HCT116 MTAP null cells (HCT116-MTAP null) and with HCT116 WT cells were 144 nM and 1740 nM, respectively.

Consider `Cc1cc2cc(C(=O)N(Cc3ccc(C(F)(F)F)cn3)[C@@H](C)c3ccc(F)cn3)ccc2nc1N` (single isomer, unassigned) [Example 485], for which the half-inhibitory concentration (IC50) was 734 nM in the test on HCT116 MTAP null cells (HCT116-MTAP null) and 4680 nM with HCT116 WT cells.

Regarding `Cc1cc2cc(C(=O)N(Cc3ccc(C(F)(F)F)cn3)Cc3ncccn3)c(F)cc2nc1N` [Example 319, 2-amino-7-fluoro-3-methyl-N-(2-pyrimidinylmethyl)-N-((5-(trifluoromethyl)-2-pyridinyl)methyl)-6-quinolinecarboxamide], the concentration for half-maximal inhibition (IC50) with HCT116 MTAP null cells (HCT116-MTAP null) was 168 nM; in the test on HCT116 WT cells, 4230 nM.

`Cc1cc2cc(C(=O)N(Cc3ccc(C(F)(F)F)cn3)CC(O)C(F)(F)F)ccc2nc1N` (centres unmarked) [Example 592, 2-amino-3-methyl-N-(3,3,3-trifluoro-2-hydroxypropyl)-N-((5-(trifluoromethyl)pyridin-2-yl)methyl)quinoline-6-carboxamide]: the IC50 in the test with HCT116 MTAP null cells (HCT116-MTAP null) was 407 nM; in the test with HCT116 WT cells, greater than 1000 nM.

For `Cc1cc2cc(C(=O)N(Cc3ccc(C(F)(F)F)cn3)Cc3ncc(Cl)cn3)ccc2nc1N` [Example 339, 2-amino-N-((5-chloro-2-pyrimidinyl)methyl)-3-methyl-N-((5-(trifluoromethyl)-2-pyridinyl)methyl)-6-quinolinecarboxamide], the figures for the IC50 in the test with HCT116 MTAP null cells (HCT116-MTAP null) and with HCT116 WT cells were 405 nM and greater than 10000 nM, respectively.

In the case of `CO[C@@H]1CCOC[C@H]1N(Cc1ccc(C(F)(F)F)cn1)C(=O)c1ccc2nc(N)c(C)cc2c1` (racemic) [Example 833, 2-Amino-N-((3R,4R)-4-methoxytetrahydro-2H-pyran-3-yl)-3-methyl-N-((5-(trifluoromethyl)-2-pyridinyl)methyl)-6-quinolinecarboxamide and 2-amino-N-((3S,4S)-4-methoxytetrahydro-2H-pyran-3-yl)-3-methyl-N-((5-(trifluoromethyl)-2-pyridinyl)methyl)-6-quinolinecarboxamide], the IC50 amounted to 39 nM in the test on HCT116 MTAP null cells (HCT116-MTAP null) and 1190 nM with HCT116 WT cells.

As for `Cc1cc2cc(C(=O)N(Cc3ccc(N4CCOCC4)nn3)C(C)c3ncccn3)c(F)cc2nc1N` (stereo in doubt) [Example 731, 2-amino-7-fluoro-3-methyl-N-((6-(4-morpholinyl)-3-pyridazinyl)methyl)-N-((1R)-1-(2-pyrimidinyl)ethyl)-6-quinolinecarboxamide], the concentration for half-maximal inhibition (IC50) worked out at 50 nM in the test with HCT116 MTAP null cells (HCT116-MTAP null) and 693 nM with HCT116 WT cells.

On to `Cc1cc2cc(C(=O)N(Cc3cc(Cl)c(C#N)cn3)[C@H](C)c3ncccn3)ccc2nc1N` [Example 807, (R)-2-amino-N-((4-chloro-5-cyanopyridin-2-yl)methyl)-3-methyl-N-(1-(pyrimidin-2-yl)ethyl)quinoline-6-carboxamide], for which the half-maximal inhibitory concentration (IC50) in the test with HCT116 MTAP null cells (HCT116-MTAP null) worked out at 75 nM; in the test on HCT116 WT cells it was 764 nM.

Consider `CO[C@@H]1CCCC[C@H]1N(Cc1ccc(C(F)(F)F)cn1)C(=O)c1cnc2nc(N)c(Br)cc2c1` (racemic) [Example 798, 7-amino-6-bromo-N-((1R,2R)-2-methoxycyclohexyl)-N-((5-(trifluoromethyl)pyridin-2-yl)methyl)-1,8-naphthyridine-3-carboxamide], for which the IC50 in the test with HCT116 MTAP null cells (HCT116-MTAP null) stood at 250 nM; in the test on HCT116 WT cells it was 6960 nM.

For the compound `CCc1csc(CN(Cc2ccc(C(F)(F)F)cn2)C(=O)c2ccc3nc(N)c(C)cc3c2)n1` [Example 586, 2-amino-N-((4-ethylthiazol-2-yl)methyl)-3-methyl-N-((5-(trifluoromethyl)pyridin-2-yl)methyl)quinoline-6-carboxamide], the values for the IC50 in the test with HCT116 MTAP null cells (HCT116-MTAP null) and with HCT116 WT cells were 344 nM and 5550 nM, respectively.

Regarding `COC(=O)N1CCC(c2ccc(CN(C(=O)c3ccc4nc(N)c(C)cc4c3)[C@H](C)c3ncccn3)nc2)CC1` [Example 822, methyl (R)-4-(6-((2-amino-3-methyl-N-(1-(pyrimidin-2-yl)ethyl)quinoline-6-carboxamido)methyl)pyridin-3-yl)piperidine-1-carboxylate], the half-maximal inhibitory concentration (IC50) in the test on HCT116 MTAP null cells (HCT116-MTAP null) is 45 nM; with HCT116 WT cells, 763 nM.

For `Cc1cc2cc(C(=O)N(Cc3ccc(C(F)(F)F)cn3)[C@H]3CCC[C@@H]3OC(F)F)ccc2nc1N` (single isomer, unassigned) [Example 817], the IC50 turned out to be 369 nM in the test on HCT116 MTAP null cells (HCT116-MTAP null) and 1310 nM with HCT116 WT cells.

In the case of `Cc1cc2cc(C(=O)N(Cc3ccc(C(F)(F)F)cn3)[C@@H]3COCc4ncccc43)ccc2nc1N` (single isomer, unassigned) [Example 814], the IC50 in the test on HCT116 MTAP null cells (HCT116-MTAP null) was 62 nM; in the test on HCT116 WT cells, 1760 nM.

For `CO[C@H]1Cc2ccccc2[C@@H]1N(Cc1ccc(C(F)(F)F)cn1)C(=O)c1ccc2nc(N)c(C)cc2c1` [Example 752, 2-amino-N-((1S,2S)-2-methoxy-2,3-dihydro-1H-inden-1-yl)-3-methyl-N-((5-(trifluoromethyl)-2-pyridinyl)methyl)-6-quinolinecarboxamide], the IC50 in the test on HCT116 MTAP null cells (HCT116-MTAP null) stood at 119 nM; in the test on HCT116 WT cells, 1740 nM.

Turning to `Cc1cc2cc(C(=O)N(Cc3ccc(C(F)(F)F)cn3)Cc3cc(Cl)cn3C)ccc2nc1N` [Example 582, 2-amino-N-((4-chloro-1-methyl-1H-pyrrol-2-yl)methyl)-3-methyl-N-((5-(trifluoromethyl)pyridin-2-yl)methyl)quinoline-6-carboxamide], the IC50 in the test on HCT116 MTAP null cells (HCT116-MTAP null) is 490 nM; in the test on HCT116 WT cells, greater than 1000 nM.

As for `Cc1cc2cc(C(=O)N(Cc3ccc(C(F)(F)F)cn3)[C@H](C)c3ncccn3)ccc2nc1N` [Example 503, 2-amino-3-methyl-N-((1R)-1-(2-pyrimidinyl)ethyl)-N-((5-(trifluoromethyl)-2-pyridinyl)methyl)-6-quinolinecarboxamide], the IC50 was 26 nM in the test on HCT116 MTAP null cells and 680 nM in the test with HCT116 WT cells.

For the compound `Cc1cc2cc(C(=O)N(Cc3ccc(C(F)(F)F)cn3)[C@@H]3CCOC[C@H]3O)ccc2nc1N` (mixture of isomers) [Example 803, 2-amino-N-((3R,4S)-3-hydroxytetrahydro-2H-pyran-4-yl)-3-methyl-N-((5-(trifluoromethyl)-2-pyridinyl)methyl)-6-quinolinecarboxamide and 2-amino-N-((3S,4R)-3-hydroxytetrahydro-2H-pyran-4-yl)-3-methyl-N-((5-(trifluoromethyl)-2-pyridinyl)methyl)-6-quinolinecarboxamide], the figures for the half-maximal inhibitory concentration (IC50) in the test with HCT116 MTAP null cells (HCT116-MTAP null) and with HCT116 WT cells were 412 nM and greater than 10000 nM, respectively.

Usually IC50 stands for the concentration at which inhibition is half-maximal.
